Laboratory results published in patent US20120208873A1, “TEA POLYPHENOLS PRODUCTS FOR CEASING SMOKING AND TREATING AND/OR PREVENTING NICOTINE OR NICOTINE-DERIVED COMPOUNDS OR ESTROGEN INDUCED BREAST CANCER” (priority 2011, published 2012).
Entries after “also recorded” stand apart in the source; their conditions may differ.

Tests used:
Assay type in all cases: cell-based, human
[1] = system: α9-nAChR protein; test: α9-nAChR protein levels by immunoblotting in MCF-7 cells; conditions: MCF-7
Protocol: (§1) Human mammary gland epithelial adenocarcinomas (MCF7, MDA-MB-231, AU-565, MDA-MB-453, and BT-483) and normal human mammary gland epithelial fibrocystic cell lines (MCF-10A and HBL-100) were purchased from ATCC (American Type Culture Collection, Manassas, Va., USA). MCF-7, MDA-MB-231, and MDA-MB-453 cells were maintained in DMEM, whereas BT-483 cells were maintained in RPMI-1640. Cell growth, proliferation, and viability were determined by the 3-(4,5-dimethylthiazol-2-yl)-2,5-diphenyltetrazolium (MTT) assay. The formazan product was measured by absorbance at 540 nm.
To prepare protein samples, cells were washed once with ice-cold PBS and lysed on ice in cell lysis buffer (50 mM Tris-HCl, pH 8.0, 120 mM […], 0.5% Nonidet P-40, 100 mM sodium fluoride, and 200 μM sodium orthovanadate) containing protease inhibitors as described previously (Shih, Y. L., Liu, H. C., Chen, C. S., Hsu, C. H. et al., J. Agric. Food Chem. 2010, 58, 235-241). Protein (50 μg) from each sample was resolved by 12% SDS-polyacrylamide gel electrophoresis, transferred, and analyzed by Western blotting. Antibodies were purchased from the following vendors: anti-total AKT and protein A/G agarose beads were obtained from Santa Cruz Biotechnology (Santa Cruz, Calif., USA); anti-GAPDH and anti-α9-nAChR antibodies were from Abcam (Cambridge, UK); antiphospho AKT (Ser^473), anti-c-Jun, and anti-c-Fos were from Cell Signaling Technology (Beverly, Mass., USA). The secondary antibodies, alkaline phosphatase-coupled anti-mouse, and anti-rabbit IgG were purchased from Santa Cruz Biotechnology. The specific protein complexes were identified with the chromogenic substrates nitro blue tetrazolium, and 5-bromo-4-chloro-3-indolyl-phosphate from KPL (Gaithersburg, Md., USA). In each experiment, proteins were also probed with anti-GAPDH antibodies as a protein-loading control.

[2] = system: AP-1; test: ChIP assay of AP-1 binding to the α9-nAChR promoter in MCF-7 cells; conditions: EGCG 10 μM 24 h pretreatment, Nic 10 μM
Protocol: Chromatin immunoprecipitation (ChIP) assays of cultured cells were performed as described previously (Chen, C. S., Lee, C. H., Hsieh, C. D., Ho, C. T. et al., Breast Cancer Res. Treat. 2010; Shih, Y. L., Liu, H. C., Chen, C. S., Hsu, C. H. et al., J. Agric. Food Chem. 2010, 58, 235-241). Briefly, after various regimens of Nic treatment, the cells were fixed with a final concentration of 1% formaldehyde directly added to the cell culture medium at 25° C. for 15 min. The crosslinking reaction was terminated with 0.125 M glycine for 5 min, and the cells were collected into a new Eppendorf tube. The cell lysate was sonicated three times with 10 s bursts to yield input DNA enriched for fragments around 1000 bp in size. A c-Jun (AP-1) antibody (Santa Cruz Biotechnology) was used for the immunoprecipitation reactions. Primers, which detect the a9-nAChR promoter regions, amplified a region from −960 to −1 for 32 cycles (forward: 5′-ATGCAATG CAAGCCTGAGCT-3′ (SEQ ID NO:2) and reverse: 5′-TATA-[…]-3′ (SEQ ID NO:3)). The PCR products were then separated and analyzed by agarose gel electrophoresis.

[3] = system: p53; test: ChIP assay of p53 binding to the α9-nAChR promoter in MCF-7 cells; conditions: EGCG 10 μM pretreatment, Nic 10 μM
[4] = system: MCF-10A cells; test: Cell proliferation (MTT assay) in normal MCF-10A cells; conditions: Nic 10 μM or EGCG 10-25 μM
Protocol: as §1

[5] = system: MCF-7 cells; test: Soft agar cloning assay (colony formation) of MCF-7 cells; conditions: EGCG 10 μM, Nic 10 μM
Protocol: The base layer consisted of 0.9% low gelling point SeaPlaque agarose (Sigma, St. Louis, Mo., USA) in culture medium (Shih, Y. L., Liu, H. C., Chen, C. S., Hsu, C. H. et al., J. Agric. Food Chem. 2010, 58, 235-241). Soft agar, consisting of 0.4% SeaPlaque agarose in culture medium, was mixed with 1×10^4 MCF-7 cells and plated on top of the base layer in 60-mm diameter culture dishes. Soft agar cultures were maintained at 37° C. and counted for the appearance of colonies with a Leica DMI 4000B Microscope Imaging System (Leica Microsystems, Wetzlar, Germany).

O=C(O[C@@H]1Cc2c(O)cc(O)cc2O[C@@H]1c1cc(O)c(O)c(O)c1)c1cc(O)c(O)c(O)c1 [EGCG, (−)-epigallocatechin-3-gallate]
Nic- and E2-induced upregulation of α9-nAChR protein after inhibitor pretreatment ([1]; 24 h pretreatment (LY294002 25 μM or EGCG 10 μM), then Nic 10 μM or E2 10 nM 24 h): almost completely inhibited; also recorded: significantly inhibited | α9-nAChR protein in Nic-treated cells ([1]; EGCG 1 μM with Nic 10 μM, 24 h): downregulated | α9-nAChR protein expression induced by either Nic or E2 ([1]; Nic 10 μM or E2 10 nM in presence of EGCG 1-10 μM, 24 h): significantly inhibited | Nic-induced AP-1 binding to the α9-nAChR promoter [2]: attenuated | p53 binding to the α9-nAChR promoter (−125 to 0) [3]: not affected | cell number in normal breast epithelial cells [4]: no changes | colony formation in α9-nAChR (Si) cells compared with (Sc) cells [5]: profoundly inhibited | formation of transformed colonies compared with Nic-treated cells ([5]; MCF-7): significantly inhibits
